Source: patent US20260174875A1 (Novo Nordisk A/S, priority 2023, published 2026)
Where two headings read alike, the source gives them in different places.

Assays:
Assay type in all cases: cell-based
[1] = target: T1, human GLP-1 receptor (hGLP-1R) (Homo sapiens, UniProt P43220); assay: GLP-1 receptor assay, method B (CRE-luciferase reporter, BHK cells, 384-well)
T1 construct: expressed in transfected cells
Experimental: Cells at approximately 80-90% confluence were washed once in PBS (Gibco 14190-094) and loosened from the cell flasks with Versene (Gibco, 15040-033). […] Cells were aliquoted and stored at −180° C. until use.
The assay buffer consisted of DMEM without phenol red (Gibco, 11880-028) supplemented with 1× GlutaMAX (Gibco, 35050-038), 10 mM HEPES (Gibco, 15630-056), 1% (w/v) ovalbumin (Sigma, A5503) and 0.1% (v/v) Pluronic F-68 (Gibco, 24040-032) either with HSA or without HSA (Sigma, A9511).
Serial dilutions were transferred to a 384-well assay plate (PerkinElmer/Revvity, 6007688) and mixed with an equal volume (10 μL) of assay buffer without or with 3% (w/v) HSA (Sigma, A-9511). Frozen stocks of hGLP-1R BHK Cre-Luc cells were thawed in a 37° C. water bath, washed once in PBS (Gibco 14190-094), diluted to 1.5×10^5 (1.5E+5) cells/mL in assay buffer (without HSA) and added (10 μL) to each well of the 384-well assay plate. After a short centrifugation, the assay plates were incubated for 3 hours at 37° C. in 5% CO2 and let to equilibrated at room temperature for 10 minutes before the addition of 30 μL steadylite Plus™ PerkinElmer/Revvity, 6066759) per well. Plates were sealed and incubated at room temperature with gentle shaking for 30 minutes while protected from light. Luminescence was detected on a luminescence plate reader e.g. a Synergy 2 (BioTek).

[2] = target: T2, human GIP receptor (hGIPR) (Homo sapiens, UniProt P48546); assay: GIP receptor assay, method B (CRE-luciferase reporter, BHK cells, 384-well)
T2 construct: expressed in transfected cells
T2 sequence (P48546 22-466): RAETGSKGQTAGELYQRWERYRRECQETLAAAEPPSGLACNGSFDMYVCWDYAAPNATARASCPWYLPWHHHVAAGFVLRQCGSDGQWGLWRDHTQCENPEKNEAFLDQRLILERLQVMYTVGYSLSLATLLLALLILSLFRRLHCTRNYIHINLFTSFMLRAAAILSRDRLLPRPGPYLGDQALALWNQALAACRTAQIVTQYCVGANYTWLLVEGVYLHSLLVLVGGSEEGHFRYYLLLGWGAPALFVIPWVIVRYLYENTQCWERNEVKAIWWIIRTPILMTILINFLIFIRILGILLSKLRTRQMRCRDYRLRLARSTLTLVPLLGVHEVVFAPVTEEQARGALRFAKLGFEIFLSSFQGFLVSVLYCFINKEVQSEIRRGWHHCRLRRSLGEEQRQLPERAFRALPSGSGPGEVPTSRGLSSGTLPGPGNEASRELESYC

[3] = target: T3, human amylin receptor (hAMYR3) (Homo sapiens, UniProt O60896+P30988); assay: Amylin receptor assay, method B (CRE-luciferase reporter, BHK cells)
T3 construct: host or cells: BHK cells (Hollex-1 line expressing hCTR(a) and CRE-Luc), further transfected with human RAMP3
Experimental: To assess how the activation of the receptors is potentially influenced by the presence of human serum albumin (HSA), the in vitro assays were performed in the absence of HSA and presence of 1% (w/v) HSA.
It is thus possible to measure hAMYR3 activity using a CRE-luciferase reporter gene introduced into Baby Hamster Kidney (BHK) cells co-expressing the hAMYR3.
The cell line was further transfected with human receptor modifying protein 3 (RAMP3) using standard methods.
After centrifugation, the cell pellet was resuspended and diluted to approximately 2.5-4.0×10^6 (2.5E+6 to 4.0E+6) cells/mL in Recovery™ Cell Culture Freezing Medium (Gibco, 12648-010). Cells were aliquoted and stored at −180° C. until use.
The assay buffer consisted of DMEM without phenol red (Gibco, 11880-028) supplemented with 1× GlutaMAX (Gibco, 35050-038), 10 mM HEPES (Gibco, 15630-056) and 1% (w/v) ovalbumin (Sigma, A5503) either with or without 0.1% (v/v) Pluronic F-68 (Gibco, 24040-032) and either with or without HSA (Sigma, A9511).
To perform the assay, hAMYR3 BHK Cre-Luc cells were thawed, washed once in PBS (Gibco 14190-094) and seeded in 40 μL growth medium in a white 384-well culture plate (PerkinElmer/Revvity, 6007688) at a cell density of 4.0×10^3 (4.0E+3) cells/well the day before the experiment. The plate was incubated over night at 37° C. in 5% CO2. […] Serial dilutions were then mixed in a new 96-well plate with equal volume (1:1:1 ratio) of assay buffer and either assay buffer without or with 3% HSA (Sigma, A-9511). Twenty microliters of the solution mix were transferred to the cells which previously were washed once with PBS (Gibco 14190-094). After a short centrifugation, the assay plates were incubated for 3 hours at 37° C. in 5% CO2 and let to equilibrated at room temperature for 10 minutes before the addition of 30 μL steadylite Plus™ PerkinElmer/Revvity, 6066759) per well. Plates were sealed and incubated at room temperature with gentle shaking for 30 minutes while protected from light. Luminescence was detected on a luminescence plate reader e.g., a Synergy 2 (BioTek).

[4] = method B, absence of HSA, read-out: hGLP-1R Potency, no HSA, EC50
[5] = method B, absence of HSA, read-out: hGIPR Potency, no HSA, EC50
[6] = method B, absence of HSA, read-out: hAMYR3 Potency, no HSA, EC50
[7] = hGLP-1R Potency, 1% HSA, EC50, methods B, in the presence of 1% HSA
[8] = hGIPR Potency, 1% HSA, EC50, methods B, in the presence of 1% HSA
[9] = hAMYR3 Potency, 1% HSA, EC50, methods B, in the presence of 1% HSA

T3 sequence (P30988 25-474): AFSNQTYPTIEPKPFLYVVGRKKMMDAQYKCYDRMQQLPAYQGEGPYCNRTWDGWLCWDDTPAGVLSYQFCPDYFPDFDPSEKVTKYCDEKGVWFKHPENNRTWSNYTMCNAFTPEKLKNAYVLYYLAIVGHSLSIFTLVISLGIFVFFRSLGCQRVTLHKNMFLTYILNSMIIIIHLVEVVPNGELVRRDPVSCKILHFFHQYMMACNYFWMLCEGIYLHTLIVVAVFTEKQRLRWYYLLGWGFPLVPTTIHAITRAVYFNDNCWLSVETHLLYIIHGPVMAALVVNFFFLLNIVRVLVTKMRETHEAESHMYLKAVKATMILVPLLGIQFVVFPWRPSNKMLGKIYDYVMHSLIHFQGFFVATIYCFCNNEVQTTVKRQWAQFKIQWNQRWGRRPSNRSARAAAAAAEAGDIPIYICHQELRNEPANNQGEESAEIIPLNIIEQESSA
T3 sequence (O60896 24-148): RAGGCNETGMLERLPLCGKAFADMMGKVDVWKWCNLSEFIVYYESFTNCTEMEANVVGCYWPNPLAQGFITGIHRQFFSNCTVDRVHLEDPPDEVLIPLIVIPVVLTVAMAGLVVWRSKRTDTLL
T1 sequence (P43220 24-463): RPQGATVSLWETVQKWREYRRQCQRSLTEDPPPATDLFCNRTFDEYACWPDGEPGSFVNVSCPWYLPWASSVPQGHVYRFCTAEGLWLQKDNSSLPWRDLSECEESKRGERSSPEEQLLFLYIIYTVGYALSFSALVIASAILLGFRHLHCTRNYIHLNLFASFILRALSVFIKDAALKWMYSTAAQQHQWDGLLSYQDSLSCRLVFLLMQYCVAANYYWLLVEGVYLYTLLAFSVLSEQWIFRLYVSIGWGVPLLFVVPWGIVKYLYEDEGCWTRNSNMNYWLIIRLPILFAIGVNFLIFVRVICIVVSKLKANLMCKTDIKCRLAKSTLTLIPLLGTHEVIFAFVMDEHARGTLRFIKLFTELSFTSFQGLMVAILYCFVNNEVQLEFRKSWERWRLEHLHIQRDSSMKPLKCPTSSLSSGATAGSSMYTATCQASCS

EC50 [1, 4] [nM]	EC50 [2, 5] [nM]	EC50 [3, 6] [nM]	EC50 [1, 7] [nM]	EC50 [2, 8] [nM]	EC50 [3, 9] [nM]	Compound
0.0288	0.00325	0.00846	–	–	–	CC[C@H](C)[C@H](NC(=O)[C@H](CCC(=O)O)NC(=O)[C@H](CCC(=O)O)NC(=O)[C@H](CC(C)C)NC(=O)[C@H](CC(C)C)NC(=O)[C@@H](NC(=O)[C@H](CO)NC(=O)[C@H](Cc1ccc(O)cc1)NC(=O)[C@H](CC(=O)O)NC(=O)[C@H](CO)NC(=O)[C@@H](NC(=O)[C@H](Cc1ccccc1)NC(=O)[C@@H](NC(=O)CNC(=O)[C@H](CCC(=O)O)NC(=O)C(C)(C)NC(=O)[C@@H](N)Cc1ccc(O)cc1)[C@@H](C)O)[C@@H](C)O)[C@@H](C)CC)C(=O)N[C@@H](C)C(=O)N[C@@H](C)C(=O)N[C@@H](CCCNC(=N)N)C(=O)N[C@@H](CCC(=O)O)C(=O)N[C@@H](Cc1ccccc1)C(=O)N[C@H](C(=O)N[C@@H](CCC(=O)O)C(=O)N[C@@H](Cc1c[nH]c2ccccc12)C(=O)N[C@@H](CC(C)C)C(=O)N[C@@H](CC(C)C)C(=O)N[C@@H](C)C(=O)NCC(=O)NCC(=O)N1CCC[C@H]1C(=O)N[C@@H](CO)C(=O)N[C@@H](CO)C(=O)N[C@@H](CCC(=O)O)C(=O)N[C@@H](C)C(=O)NCC(=O)N[C@@H](C)C(=O)N[C@@H](CO)C(=O)N[C@@H](CCC(N)=O)C(=O)N[C@@H](CC(C)C)C(=O)N[C@@H](CO)C(=O)N[C@H](C(=O)N[C@@H](C)C(=O)N[C@@H](CCC(N)=O)C(=O)N[C@H](C(=O)N[C@@H](CCC(N)=O)C(=O)N[C@@H](CCCNC(=N)N)C(=O)N[C@@H](CC(C)C)C(=O)N[C@@H](CO)C(=O)N[C@@H](C)C(=O)N[C@@H](CCC(=O)O)C(=O)N[C@@H](CC(C)C)C(=O)N[C@@H](Cc1c[nH]cn1)C(=O)N[C@@H](CCCCNC(=O)COCCOCCNC(=O)COCCOCCNC(=O)CC[C@H](NC(=O)CCCCCCCCCCCCCCCCCCC(=O)O)C(=O)O)C(=O)N[C@@H](CC(C)C)C(=O)N[C@@H](C)C(=O)N[C@H](C(=O)N[C@@H](CC(C)C)C(=O)N1CCC[C@H]1C(=O)N[C@@H](CCCNC(=N)N)C(=O)N[C@H](C(=O)N[C@@H](CCC(=O)O)C(=O)N[C@H](C(=O)NCC(=O)N[C@@H](CO)C(=O)NCC(=O)N[C@@H](CO)C(=O)N1CCC[C@H]1C(N)=O)[C@@H](C)O)[C@@H](C)O)[C@@H](C)O)[C@@H](C)O)[C@@H](C)O)[C@@H](C)CC [Compound 181]
0.0233	0.00436	0.01	0.17	0.0255	1.35	CC[C@H](C)[C@H](NC(=O)[C@H](CCC(=O)O)NC(=O)[C@H](CCC(=O)O)NC(=O)[C@H](CC(C)C)NC(=O)[C@H](CC(C)C)NC(=O)[C@@H](NC(=O)[C@H](CO)NC(=O)[C@H](Cc1ccc(O)cc1)NC(=O)[C@H](CC(=O)O)NC(=O)[C@H](CO)NC(=O)[C@@H](NC(=O)[C@H](Cc1ccccc1)NC(=O)[C@@H](NC(=O)CNC(=O)[C@H](CCC(=O)O)NC(=O)C(C)(C)NC(=O)[C@@H](N)Cc1ccc(O)cc1)[C@@H](C)O)[C@@H](C)O)[C@@H](C)CC)C(=O)N[C@@H](C)C(=O)N[C@@H](C)C(=O)N[C@@H](CCCNC(=N)N)C(=O)N[C@@H](CCC(=O)O)C(=O)N[C@@H](Cc1ccccc1)C(=O)N[C@H](C(=O)N[C@@H](CCC(=O)O)C(=O)N[C@@H](Cc1c[nH]c2ccccc12)C(=O)N[C@@H](CC(C)C)C(=O)N[C@@H](CC(C)C)C(=O)N[C@@H](C)C(=O)NCC(=O)NCC(=O)N1CCC[C@H]1C(=O)N[C@@H](CO)C(=O)N[C@@H](CO)C(=O)NCC(=O)N[C@@H](C)C(=O)NCC(=O)N[C@@H](C)C(=O)N[C@@H](CO)C(=O)N[C@@H](Cc1c[nH]cn1)C(=O)N[C@@H](CC(C)C)C(=O)N[C@@H](CO)C(=O)N[C@H](C(=O)N[C@@H](C)C(=O)N[C@@H](CCC(N)=O)C(=O)N[C@H](C(=O)N[C@@H](CCC(N)=O)C(=O)N[C@@H](CCCNC(=N)N)C(=O)N[C@@H](CC(C)C)C(=O)N[C@@H](CO)C(=O)N[C@@H](C)C(=O)N[C@@H](CCC(=O)O)C(=O)N[C@@H](CC(C)C)C(=O)N[C@@H](Cc1c[nH]cn1)C(=O)N[C@@H](CCCCNC(=O)COCCOCCNC(=O)COCCOCCNC(=O)CC[C@H](NC(=O)CCCCCCCCCCCCCCCCCCC(=O)O)C(=O)O)C(=O)N[C@@H](CC(C)C)C(=O)N[C@@H](C)C(=O)N[C@H](C(=O)N[C@@H](CCC(=O)O)C(=O)N1CCC[C@H]1C(=O)N[C@@H](CCCNC(=N)N)C(=O)N[C@H](C(=O)N[C@@H](CCC(=O)O)C(=O)N[C@H](C(=O)NCC(=O)N[C@@H](CO)C(=O)NCC(=O)N[C@@H](CO)C(=O)N1CCC[C@H]1C(N)=O)[C@@H](C)O)[C@@H](C)O)[C@@H](C)O)[C@@H](C)O)[C@@H](C)O)[C@@H](C)CC [Compound 179]
0.0262	0.00299	0.00761	0.0653	0.0107	0.961	CC[C@H](C)[C@H](NC(=O)[C@H](CCC(=O)O)NC(=O)[C@H](CCC(=O)O)NC(=O)[C@H](CC(C)C)NC(=O)[C@H](CC(C)C)NC(=O)[C@@H](NC(=O)[C@H](CO)NC(=O)[C@H](Cc1ccc(O)cc1)NC(=O)[C@H](CC(=O)O)NC(=O)[C@H](CO)NC(=O)[C@@H](NC(=O)[C@H](Cc1ccccc1)NC(=O)[C@@H](NC(=O)CNC(=O)[C@H](CCC(=O)O)NC(=O)C(C)(C)NC(=O)[C@@H](N)Cc1ccc(O)cc1)[C@@H](C)O)[C@@H](C)O)[C@@H](C)CC)C(=O)N[C@@H](C)C(=O)N[C@@H](C)C(=O)N[C@@H](CCCNC(=N)N)C(=O)N[C@@H](CCC(=O)O)C(=O)N[C@@H](Cc1ccccc1)C(=O)N[C@H](C(=O)N[C@@H](CCC(=O)O)C(=O)N[C@@H](Cc1c[nH]c2ccccc12)C(=O)N[C@@H](CC(C)C)C(=O)N[C@@H](CC(C)C)C(=O)N[C@@H](C)C(=O)NCC(=O)NCC(=O)N1CCC[C@H]1C(=O)N[C@@H](CO)C(=O)N[C@@H](CO)C(=O)NCC(=O)N[C@@H](C)C(=O)NCC(=O)N[C@@H](CCC(N)=O)C(=O)N[C@@H](C)C(=O)N[C@@H](CCC(=O)O)C(=O)NCC(=O)N[C@@H](CCC(N)=O)C(=O)N[C@@H](C)C(=O)N1CCC[C@H]1C(=O)NCC(=O)N[C@@H](C)C(=O)N[C@@H](CO)C(=O)N[C@@H](Cc1c[nH]cn1)C(=O)N[C@@H](CC(C)C)C(=O)N[C@@H](CO)C(=O)N[C@H](C(=O)N[C@@H](C)C(=O)N[C@@H](CCC(N)=O)C(=O)N[C@H](C(=O)N[C@@H](CCC(N)=O)C(=O)N[C@@H](CCCNC(=N)N)C(=O)N[C@@H](CC(C)C)C(=O)N[C@@H](CO)C(=O)N[C@@H](C)C(=O)N[C@@H](CCC(=O)O)C(=O)N[C@@H](CC(C)C)C(=O)N[C@@H](Cc1c[nH]cn1)C(=O)N[C@@H](CCCCNC(=O)COCCOCCNC(=O)COCCOCCNC(=O)CC[C@H](NC(=O)CCCCCCCCCCCCCCCCCCC(=O)O)C(=O)O)C(=O)N[C@@H](CC(C)C)C(=O)N[C@@H](C)C(=O)N[C@H](C(=O)N[C@@H](CC(C)C)C(=O)N1CCC[C@H]1C(=O)N[C@@H](CCCNC(=N)N)C(=O)N[C@H](C(=O)N[C@@H](CCC(=O)O)C(=O)N[C@H](C(=O)NCC(=O)N[C@@H](CO)C(=O)NCC(=O)N[C@@H](CO)C(=O)N1CCC[C@H]1C(N)=O)[C@@H](C)O)[C@@H](C)O)[C@@H](C)O)[C@@H](C)O)[C@@H](C)O)[C@@H](C)CC [Compound 150]
